Test results published in patent publication US20050106262A1, “Pharmaceutical composition comprising arsenite for the treatment of malignancy” (Korea Microbiological Laboratories, Ltd., priority 2002, published 2005).

Tests used:
[1] = tested on: Ehrlich ascites tumour; conditions: cited from earlier work
[2] = tested on: promyelocytic leukaemia; assay: modified propidium iodide cytotoxicity assay, promyelocytic leukaemia (comparison); type: cell-based, human
Description: (§1) Various human tumor cells were grown at 37° C. in a humidified atmosphere (95% air, 5% CO2) in monolayer cultures in RPMI 1640 medium with phenol red (Life Technologies, Karlsruhe, Germany) supplemented with 10% fetal calf serum. Cells were trypsinized and maintained weekly.
(§2) A modified propidium iodide assay (based on W. A. Dengler et. al, Anti-Cancer Drugs, 6, pp. 522-532 (1995)) was used to examine the antiproliferative activity of the study compounds. Briefly, cells will be harvested from exponential phase cultures growing in RPMI 1640 medium supplemented with 10% fetal calf serum by trypsination, counted and plated in 96 well flat-bottomed microtiter plates (140 μl cell suspension, 8×10^4 cells/ml). […] After thawing of the plates, fluorescence was measured using a Millipore Cytofluor 2350-microplate reader (excitation 530 nm, emission 620 nm) in order to quantify the total cell number. […]
(§3) Growth inhibition is expressed as Treated/Control×100 (or T/C %). IC50 and IC70 values were determined by plotting compound concentration versus cell number. Mean IC50 and IC70 values were calculated according to the formula: [formula]
(§4) With x=specific tumor cell line and n=total number of cell lines studied. If IC50 or IC70 could not be determined within the examined dose range, the lowest or highest concentration studied was used for the calculation.

[3] = tested on: PC3; assay: modified propidium iodide cytotoxicity assay, prostate tumour cell line; type: cell-based, human; conditions: Prostate tumour cell line PC3, 4 days of incubation
Description: as §1, §2, §3, §4

[4] = tested on: OVCAR3; assay: modified propidium iodide cytotoxicity assay, ovarian tumour cell line; type: cell-based, human; conditions: Ovarian tumour cell line OVCAR3, 4 days of incubation
Description: as §1, §2, §3, §4

[5] = tested on: RXF486L; assay: modified propidium iodide cytotoxicity assay, renal tumour cell line; type: cell-based, human; conditions: 4 days of incubation
Description: as §1, §2, §3, §4

[6] = tested on: GXF251L; assay: modified propidium iodide cytotoxicity assay, gastric tumour cell line; type: cell-based, human; conditions: 4 days of incubation
Description: as §1, §2, §3, §4

[7] = tested on: MXAF401NL; assay: modified propidium iodide cytotoxicity assay, mammary tumour cell line; type: cell-based, human; conditions: 4 days of incubation
Description: as §1, §2, §3, §4

[8] = tested on: DLD1; assay: modified propidium iodide cytotoxicity assay, colon tumour cell line; type: cell-based, human; conditions: Colon tumour cell line DLD1, 4 days of incubation
Description: as §1, §2, §3, §4

Potassium arsenite
effect on tumour growth [1]: affected only the growth of Ehrlich ascites tumour

salt of meta-arsenite (AsO2^−) [meta-arsenite compound]
IC70 ([2]; promyelocytic leukaemia, comparison): 6.82 µg/mL
sensitivity of the Table I tumour cells relative to promyelocytic leukaemia ([2]; ratio of IC70 values, solid tumour cells versus promyelocytic leukaemia): 2 to 20 times
IC70 [3]: 0.85 µg/mL
IC70 [4]: 3.02 µg/mL
IC70 [5]: 0.63 µg/mL
IC70 [6]: 3.08 µg/mL
IC70 [7]: 0.32 µg/mL
IC70 [8]: 0.48 µg/mL
